Results taken from US10071110B2, “Phosphonate compounds” (priority 1999, dated 2018).
Read-outs that look alike come from different tables or passages of the source.

Tests used:
[1] = test system: patients with steroid-induced osteoporosis; assay: Stimulation of bone formation in humans with steroid-induced osteoporosis; format: in vivo, human; conditions: oral 0.1 to 100 mg/kg/day, one month to one year, vs placebo
HSV-1 = HSV-1 antiviral assay, HSV DNA quantified by nucleic acid hybridization in MRC-5 cells; format: cell-based; conditions: CC50/EC50 (Table 7)
[2] = test system: Human cytomegalovirus (HCMV); assay: HCMV antiviral assay, HCMV DNA quantified by DNA hybridization in MRC-5 cells; format: cell-based; conditions: for Selectivity Index: CC50/EC50, Human CMV in MRC-5 (Table 2)
postmenopausal women = conditions: oral 0.1 to 100 mg/kg/day, two to three years, vs placebo
HIV-1 = conditions: Human immunodeficiency virus 1, 72 h, read-out: EC50, in HIV-1 plaque reduction assay
[3] = Cytotoxicity in CEM cells (CC50); format: cell-based; conditions: human; CEM cells (Table 1)
in vitro [4] = conditions: human
in vitro [5] = conditions: African green monkey
[6] = Cytotoxicity of test compounds in vitro, visual estimate of 50% reduction in cell number; conditions: human, MRC-5 human lung fibroblast cells
[7] = test system: MRC-5 human lung fibroblast cells; assay: as above; conditions: MRC-5 cells
Calvarial cells = assay: Dexamethasone-induced apoptosis in calvarial cells, trypan blue; format: cell-based, mice; conditions: pretreatment at 10^−8 or greater for 1 hour, then 6 hours 10^−4 dexamethasone
MLO-Y4 osteocytic cells = conditions: at 10^−8 to 10^−5 M; 1 hour pretreatment, then 6 hours 10^−4 M dexamethasone
ovariectomized rats = conditions: subcutaneous 0 to 8 mg/kg/day, four to twelve weeks, vs ovariectomized controls
HT4-6C cells = assay: Cytotoxicity by the method of Hostetler et al. (HIV study); conditions: Table 6

1-O-octadecyloxypropyl-amino-olpadronate
bone density [1]: bone density is increased | fractures [1]: fractures are decreased

CCCCCCCCCCCCCCCCCCOCCOP(=O)(O)COC(CO)Cn1ccc(N)nc1=O (stereo not drawn) [1-O-octadecylethanediol-2-CDV]
Selectivity Index (HSV-1): 105,000

CCCCCCCCCCCCCCCCCCOCCOP1(=O)COC(Cn2ccc(N)nc2=O)CO1 (stereo not drawn) [1-O-octadecylethanediol-2-cCDV]
Selectivity Index [2]: 1 × 10^6 | Selectivity Index (HSV-1): 40,000

CCCCCCCCCCCCCCCCCCOCCCOP(=O)(O)C(O)(CCCN)P(=O)(O)O (stereo not drawn) [1-O-octadecyloxypropyl alendronate, 1-O-octadecyloxypropyl-alendronate]
fractures (postmenopausal women): fewer fractures | rate of reduction in bone density (postmenopausal women): lesser rate of reduction in bone density than the placebo group

CCCCCCCCCCCCCCCCCCOCCCOP(=O)(O)CO[C@H](CO)Cn1ccc(N)nc1=O [1-O-octadecylpropanediol-3-CDV]
Selectivity Index [2]: 1 × 10^6

CCCCCCCCCCCCCCCCCCOCCCOP1(=O)COC(Cn2ccc(N)nc2=O)CO1 (stereo not drawn) [1-O-octadecylpropanediol-3-cCDV]
Selectivity Index [2]: 1 × 10^6 | Selectivity Index (HSV-1): 970

Cc1cn([C@H]2C[C@H](N=[N+]=[N-])[C@@H](CO)O2)c(=O)[nH]c1=O [AZT, zidovudine]
EC50 (HIV-1): 0.007 µM

Nc1ccn(C[C@@H](CO)OCP(=O)(O)O)c(=O)n1 [CDV, cidofovir]
CC50 [3]: 857 µM | CC50 (in vitro [4]): 89.8 µM | CC50 (in vitro [5]): > 100 µM | CC50 at 5 days [6]: > 1000 µM | CC50 ([7]; as in Example 17 (Table 7)): > 1000 µM

CCCCCCCCCCCCCCCCOCCCOP(=O)(O)CO[C@H](CO)Cn1ccc(N)nc1=O [HDP-CDV]
Selectivity Index [2]: 5 × 10^6

CCCCCCCCCCCCCCCCOCCCOP(=O)(O)C(O)(CCCN)P(=O)(O)O (stereo not drawn) [HDP-alendronate, 1-O-Hexadececylpropanediol-3-alendronate]
effect on dexamethasone-induced increase in % dead cells (Calvarial cells): abolished the dexamethasone-induced increase in % dead cells | effect on dexamethasone-induced apoptosis (percentage of dead cells) (MLO-Y4 osteocytic cells): inhibits dexamethasone-induced apoptosis | bone mass loss (ash weight of the femora) (ovariectomized rats): less bone mass loss than the ovariectomized controls

CCCCCCCCCCCCCCCCOP1(=O)COC(Cn2ccc(N)nc2=O)CO1 (stereo not drawn) [Hexadecyl-cCDV, hexadecyl-cCDV]
Selectivity Index [2]: 163

Nc1ccn(C[C@H]2COP(=O)(O)CO2)c(=O)n1 [cCDV, cyclic cidofovir]
CC50 [3]: > 1000 µM | CC50 (in vitro [4]): > 100 µM | CC50 (in vitro [5]): > 100 µM | CC50 at 5 days [6]: > 1000 µM | CC50 ([7]; as in Example 17 (Table 7)): > 1000 µM

hexadecyloxypropyl-adefovir [HDP-ADV]
EC50 ([2]; Human CMV replication in MRC-5 human lung fibroblasts, DNA reduction (Table 2), read-out: EC50): 0.1 µM | EC50 ([2]; preliminary experiments (Table 1), MRC-5 cells, 5 days, read-out: HCMV EC50): 0.01 µM | CC50 (HT4-6C cells): 6.5 µM | CC50 ([7]; 5 days (Table 2)): 6.5 µM
